Legend:
[1] = test system: CT26 cells transfected with pcDNA3-HKII or pcDNA3
Procedure: Cell death was determined by trypan blue exclusion. […] Alternatively, cytotoxicity was determined using hemacolor staining. Upon completion of a given experiment, cells were stained and the percentage of dead (detached) cells was determined spectrophotometrically.
CT26 cells were transfected with pcDNA3-HKII or pcDNA3, using FuGene HD transfection reagent (Roche, Basel, Switzerland), according to the manufacturer's instruction followed by selection using G418.
To examine the effect of hexokinase over-expression on methyl jasmonate action, CT26 cells were transfected with plasmids, pcDNA3-HKII or pcDNA3, encoding for hexokinase II over-expression and a control plasmid, respectively (Zaid, 2005). Cells were seeded in 96-well plates and allowed to adhere. Cells were exposed to methyl jasmonate for 60 minutes prior to ATP determination (FIG. […] 9B).

[2] = Solubility in SPR running buffer; format: physicochemical; conditions: PBS X 1 with 0.005% Tween and 5% DMSO
Procedure: SPR using ProteOn-EP5 (Bio-Rad, Hercules, Calif., USA) system has been applied to study the direct interaction of methyl jasmonate with hexokinase. This system allowed measuring ligand-analyte interactions in a 6×6 format in real time. Purified rat brain HKI and rabbit immunoglobulin G (Rb IgG; ligands) were diluted in 10 mM Na acetate pH 4 and 4.5, respectively, and coupled to a GLM sensor surface activated with 37.5 mg/ml N-Ethyl-N′-(3′ dimethylaminopropyl) carbodiimide hydrochloride and 7.5 mg/ml N-hydroxysuccinimide. HKI and IgG were added to saturate the chip at 100 μg/ml. Remaining reactive groups on the chip were then inactivated with 1 M ethanolamine pH 8.5. […] Methyl jasmonate and jasmonic acid (analytes) were diluted in running buffer (PBS X 1 with 0.005% Tween and 5% DMSO) and injected onto the sensor chip at varying concentrations. All experiments were performed at flow rate of 50 μl/min, at 25° C.

[3] = test system: mitochondria-bound hexokinase (mitochondrial fraction of B16 melanoma tumors); assay: Hexokinase detachment assay, mitochondrial fraction of B16 melanoma tumors; format: biochemical, murine; conditions: B16 tumor mitochondrial fraction; 30 minutes at 37° C.
Procedure: Mitochondrial fraction was prepared by mechanical lysis and differential centrifugation. All stages were performed on ice. Cells or extracted tissues were washed with PBS and disrupted by homogenization in extraction buffer (Sucrose 250 mM, HEPES-NaOH 10 mM, pH 7.2) freshly supplemented with 0.1 mM EDTA and Protease Inhibitors cocktail (Sigma). For each gram of cells or tissue, 4 volumes of extraction buffer were applied. The homogenate volume was doubled with the extraction buffer, and tissue and cell debris as well as nuclei were pelleted by centrifugation of 1,000 g for 10 minutes. The supernatant was further spun at 13,000 g for 10 minutes twice. Endoplasmic reticulum layer was removed. The pellet, designated as the mitochondrial fraction, was suspended in the appropriate buffer, depending on the assay for which the mitochondrial fraction was prepared. Mitochondrial fractions were used immediately or stored at −196° C. […] Activity of hexokinase in the supernatant (i.e., activity of the detached hexokinase) was determined spectrophotometrically at 340 nm. […] Mitochondrial fractions isolated from different cancer cells, namely Molt-4 cells, BCL-1 leukemic cells and B16 melanoma tumors were incubated for 30 minutes at 37° C., and the activity of unbound hexokinase was measured and compared to the activity of spontaneously (control) detached hexokinase. […]

solubility in the running buffer [2]: limited solubility
Structure (SMILES): CC/C=C\CC1C(=O)CCC1CC(=O)OC (stereo not drawn) [methyl jasmonate]
cytotoxicity (hemacolor), hexokinase II over-expressing vs. control cells [1]: decreased in cells with higher expression of hexokinase II
detachment of hexokinase (activity of unbound hexokinase compared to control) [3]: detached hexokinase from mitochondrial fraction isolated from the three different cancer cells
